According to ChEMBL document CHEMBL1201862, “PubChem BioAssay data set” (2004):
Several values for one entry are separate records, joined by “and”; a condition that tells them apart may be missing. Identical values can stand only once.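 The compound was tested at five concentrations on cells cultured in 96-well plates, with a 48-hour exposure period. Here, GI50 denotes the concentration required for 50% inhibition of growth.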 Activity calls are given as the source filed them. No stated cut-off is given here; in the data, active = GI50 up to about 1.1 µM and inactive = higher.

What was measured:
Experiment in all cases: growth of human tumour cells (NCI), 48 h
[1] = system: SR
[2] = system: NCI-H522
[3] = system: OVCAR-4
[4] = system: PC-3
[5] = system: Hs-578T
[6] = system: MDA-N
[7] = system: SF-539
[8] = system: UACC-257
[9] = system: NCI/ADR-RES
[10] = system: CAKI-1
[11] = system: RXF 393
[12] = system: HL-60
[13] = system: EKVX
[14] = system: K562
[15] = system: SK-MEL-28
[16] = system: LOX IMVI
[17] = system: NCI-H23
[18] = system: A549
[19] = system: SF-295

Row | Structure (SMILES) | GI50 [1] | GI50 [2] | GI50 [3] | GI50 [4] | GI50 [5] | GI50 [6] | GI50 [7] | GI50 [8] | GI50 [9] | GI50 [10] | GI50 [11] | GI50 [12] | GI50 [13] | GI50 [14] | GI50 [15] | GI50 [16] | GI50 [17] | GI50 [18] | GI50 [19]
1 | CCSC1=C(C#N)C2(CCCCC2)C2=C(O)CC(C)(C)CC2=N1 | > 100 µM (inactive) | 39.4 µM (inactive) | 18.8 µM (inactive) | 28.9 µM (inactive) | 52.1 µM (inactive) | > 100 µM (inactive) | 51.8 µM (inactive) | 5.96 µM (inactive) | 39.4 µM (inactive) | 35.3 µM (inactive) | 52.7 µM (inactive) | > 100 µM (inactive) | 24.3 µM (inactive) | > 100 µM (inactive) | 56.8 µM (inactive) | > 100 µM (inactive) | 32.4 µM (inactive) | 34.4 µM (inactive) | –
2 | COC(=O)Cc1c([C@H]2[C@H](CC(=O)OC)c3ccccc3N2S(=O)(=O)c2ccc(C)cc2)[nH]c2ccccc12 | 9.33 µM (inactive) | > 28.4 µM (inactive) | > 100 µM (inactive) | > 100 µM (inactive) | > 100 µM (inactive) | > 100 µM (inactive) | > 100 µM (inactive) | > 100 µM (inactive) | > 100 µM (inactive) | > 100 µM (inactive) | > 100 µM (inactive) | > 100 µM (inactive) | – | 31.4 µM (inactive) | > 100 µM (inactive) | > 100 µM (inactive) | > 100 µM (inactive) | > 100 µM (inactive) | > 100 µM (inactive)
3 | COC(=O)C1OC(O[C@H]2CC[C@]3(C)[C@H]4CC=C5[C@@H]6CC(C)(C)CC[C@]6(C(=O)OC6OCC(O)C(O)C6OC6OC(C)C(OC7OCC(O)C(O)C7O)C(O)C6O)[C@H](O)C[C@@]5(C)[C@]4(C)CC[C@H]3C2(C)C)C(O)C(O)C1O (some centres undefined) | 3.14 µM (inactive) and 3.86 µM (inactive) | 1.78 µM (inactive) and 2.63 µM (inactive) | – | 4.45 µM (inactive) and 4.68 µM (inactive) | 16.4 µM (inactive) and 16.3 µM (inactive) | 1.87 µM (inactive) and 3.43 µM (inactive) | – | 2.9 µM (inactive) and 5.79 µM (inactive) | 4.08 µM (inactive) and 3.24 µM (inactive) | 2.61 µM (inactive) and 4 µM (inactive) | 11.3 µM (inactive) and 14.9 µM (inactive) | 2.63 µM (inactive) and 2.56 µM (inactive) | 3.27 µM (inactive) and 2.82 µM (inactive) | 6.28 µM (inactive) and 10.8 µM (inactive) | 1.87 µM (inactive) and 2.13 µM (inactive) | 3.36 µM (inactive) and 6.43 µM (inactive) | 2.14 µM (inactive) and 2.24 µM (inactive) | 3.9 µM (inactive) and 3.47 µM (inactive) | 3.95 µM (inactive) and 3.91 µM (inactive)
4 | CCOC1(OCC)C2C=CC1C(COS(=O)(=O)c1ccc(C)cc1)C2COS(=O)(=O)c1ccc(C)cc1 (centres undefined) | 1.12 µM (inactive) | 18.1 µM (inactive) | 20.8 µM (inactive) | 11.6 µM (inactive) | 37.3 µM (inactive) | 28.8 µM (inactive) | 41.4 µM (inactive) | 25.4 µM (inactive) | 32 µM (inactive) | – | 39.9 µM (inactive) | 16.9 µM (inactive) | 22.4 µM (inactive) | 20.5 µM (inactive) | 84.9 µM (inactive) | 24.9 µM (inactive) | 39.1 µM (inactive) | 34.6 µM (inactive) | 96.6 µM (inactive)
5 | O=c1[nH]c2nc3ccccc3c(=O)n2/c1=C/c1ccc(Cl)cc1 | > 100 µM (inactive) | 12.6 µM (inactive) | > 100 µM (inactive) | > 100 µM (inactive) | 20.8 µM (inactive) | 22.2 µM (inactive) | 21.7 µM (inactive) | 30.7 µM (inactive) | 26.2 µM (inactive) | > 100 µM (inactive) | 46.5 µM (inactive) | 48.8 µM (inactive) | – | – | 23.5 µM (inactive) | 30.4 µM (inactive) | 25.8 µM (inactive) | > 100 µM (inactive) | 54.6 µM (inactive)
6 | O=C1Nc2ccccc2/C1=N/Nc1c(F)c(F)c(F)c(F)c1F | 3.48 µM (inactive) | 14.4 µM (inactive) | 82 µM (inactive) | > 100 µM (inactive) | 86.7 µM (inactive) | 32.2 µM (inactive) | 48.4 µM (inactive) | 27.2 µM (inactive) | 70.1 µM (inactive) | 30.8 µM (inactive) | 53.8 µM (inactive) | 2.77 µM (inactive) | 35 µM (inactive) | 8.63 µM (inactive) | > 100 µM (inactive) | 31.2 µM (inactive) | 87.7 µM (inactive) | > 100 µM (inactive) | > 100 µM (inactive)
7 | CC1OC(OCC2OC(Oc3ccc(C4CC(=O)c5c(O)cc(O)cc5O4)cc3O)C(O)C(O)C2O)C(O)C(O)C1O (centres undefined) | > 100 µM (inactive) | > 100 µM (inactive) | > 100 µM (inactive) | > 100 µM (inactive) | > 100 µM (inactive) | > 100 µM (inactive) | > 100 µM (inactive) | > 100 µM (inactive) | > 100 µM (inactive) | > 100 µM (inactive) | > 100 µM (inactive) | > 100 µM (inactive) | > 100 µM (inactive) | > 100 µM (inactive) | > 100 µM (inactive) | > 100 µM (inactive) | > 100 µM (inactive) | > 100 µM (inactive) | > 100 µM (inactive)
8 | COc1cc(C2c3cc4c(cc3OC(O)C2C)OCO4)cc(OC)c1O (centres undefined) | 2.9 µM (inactive) | 2.12 µM (inactive) | 35.1 µM (inactive) | 8.49 µM (inactive) | 8.02 µM (inactive) | 1.84 µM (inactive) | 6.28 µM (inactive) | 48.5 µM (inactive) | 3.49 µM (inactive) | 8.79 µM (inactive) | 7.35 µM (inactive) | 2.92 µM (inactive) | 19.2 µM (inactive) | 3.04 µM (inactive) | 28.7 µM (inactive) | 8.67 µM (inactive) | 28.8 µM (inactive) | 7.64 µM (inactive) | 3.92 µM (inactive)
9 | CN(C)c1ccc(C(=NN)c2ccc(N(C)C)cc2)cc1 | 0.231 µM (active) | 0.25 µM (active) | 9.62 µM (inactive) | 0.755 µM (active) | 2.33 µM (inactive) | 0.0818 µM (active) | – | 0.203 µM (active) | 0.179 µM (active) | 0.276 µM (active) | 1.98 µM (inactive) | 0.322 µM (active) | 4.74 µM (inactive) | 0.229 µM (active) | > 66.1 µM (inactive) | 0.966 µM (active) | 1.46 µM (inactive) | 1.3 µM (inactive) | 0.449 µM (active)
10 | O=C(O)C(C1NCCS1)N1C(=O)c2ccccc2C1=O (centres undefined) | > 100 µM (inactive) | > 100 µM (inactive) | > 100 µM (inactive) | > 100 µM (inactive) | > 100 µM (inactive) | > 100 µM (inactive) | > 100 µM (inactive) | > 100 µM (inactive) | > 100 µM (inactive) | > 100 µM (inactive) | > 100 µM (inactive) | > 100 µM (inactive) | > 100 µM (inactive) | > 100 µM (inactive) | > 100 µM (inactive) | > 100 µM (inactive) | > 100 µM (inactive) | > 100 µM (inactive) | > 100 µM (inactive)
11 | O=C1NC2(CCCCC2)N=C2C(Cl)CCCC12Cl (centres undefined) | > 100 µM (inactive) | > 100 µM (inactive) | > 100 µM (inactive) | > 100 µM (inactive) | > 100 µM (inactive) | > 100 µM (inactive) | > 100 µM (inactive) | – | > 100 µM (inactive) | – | > 100 µM (inactive) | > 100 µM (inactive) | > 100 µM (inactive) | > 100 µM (inactive) | > 100 µM (inactive) | > 100 µM (inactive) | > 100 µM (inactive) | 0.0535 µM (active) | > 100 µM (inactive)
12 | Cc1ccc(S(=O)(=O)c2c(O)c3ccc(O)c(C)c3oc2=O)cc1 | > 100 µM (inactive) | > 100 µM (inactive) | > 100 µM (inactive) | > 100 µM (inactive) | > 100 µM (inactive) | > 100 µM (inactive) | > 100 µM (inactive) | > 100 µM (inactive) | > 100 µM (inactive) | > 100 µM (inactive) | > 100 µM (inactive) | 23.4 µM (inactive) | > 100 µM (inactive) | > 100 µM (inactive) | > 100 µM (inactive) | – | > 100 µM (inactive) | > 100 µM (inactive) | > 100 µM (inactive)
13 | CN1CCN(c2ccc3[nH]c(-c4ccc5[nH]c(-c6ccc(N(C)CCCl)cc6)nc5c4)nc3c2)CC1 | 0.0301 µM (active) | 0.0163 µM (active) | 0.305 µM (active) | 0.136 µM (active) | 0.206 µM (active) | 0.226 µM (active) | 0.109 µM (active) | 1.66 µM (inactive) | 40.6 µM (inactive) | 4.41 µM (inactive) | 0.128 µM (active) | < 0.01 µM (active) | – | 0.191 µM (active) | 0.32 µM (active) | 0.0311 µM (active) | 0.25 µM (active) | 0.286 µM (active) | 1.76 µM (inactive)
14 | O=[N+]([O-])c1cc2oc(COc3ccccc3)nc2cc1Cl | 29.4 µM (inactive) | 18 µM (inactive) | 34.9 µM (inactive) | 38.4 µM (inactive) | 38.6 µM (inactive) | 25.9 µM (inactive) | 19.1 µM (inactive) | 22.1 µM (inactive) | 21.4 µM (inactive) | 22.7 µM (inactive) | 22.1 µM (inactive) | 38.1 µM (inactive) | 21.9 µM (inactive) | 40 µM (inactive) | 32.6 µM (inactive) | 16.7 µM (inactive) | 17.1 µM (inactive) | 33.5 µM (inactive) | 17.4 µM (inactive)
